System: Vero
Experiment: Compound was evaluated for inhibition of HSV-1 induced plaques in vero cells (African green monkey kidney cells)
Format: functional, cell-based
Details: Chlorocebus sabaeus

Question: For `Nc1nc2c(ncn2COCCO)c(=O)[nH]1` [ACYCLOVIR], which EC50 is on record?
Answer: The EC50 was 6 µM.
